Test results: patent publication US5416222A, “3-pyrrolidine methanamines wherein the alpha-carbon is substituted by 1 or 2 lower alkyl groups which are intermediates for pyridone-carboxylic acid derivatives” (Daiichi Seiyaku Co., Ltd., priority 1985, dated 1995)
Values after ≈ are worked out from the molar mass of the structure shown.

Experiments:
Experiment in all cases: antimicrobial activity, MIC, standard process of Japan Society of Chemotherapy
Format in all cases: cell-based
E. coli, NIHJ = settings: Escherichia coli, read-out: minimum growth inhibitory concentration (MIC)
Description: (§1) The antimicrobial activities of the compounds of the present invention were determined according to a standard process designated by the Japan Society of Chemotherapy and the minimum growth inhibitory concentrations (MIC) (μg/ml) the compounds were determined.

Pr. mirabilis, IF03849 = settings: for MIC: Proteus mirabilis, IF03849, Pr. mirabilis, read-out: minimum growth inhibitory concentration (MIC)
Description: as §1

Pr. vulgaris, 3167 = settings: for MIC: Proteus vulgaris, 3167, Pr. vulgaris, read-out: minimum growth inhibitory concentration (MIC)
Description: as §1

Ps. aeruginosa, 2063 = settings: for MIC: Pseudomonas aeruginosa, 2063, Ps. aeruginosa, read-out: minimum growth inhibitory concentration (MIC)
Description: as §1

Ps. aeruginosa, 2128 = settings: for MIC: Pseudomonas aeruginosa, 2128, Ps. aeruginosa, read-out: minimum growth inhibitory concentration (MIC)
Description: as §1

Ps. cepacia, IID1340 = settings: for MIC: Burkholderia cepacia, IID1340, Ps. cepacia, read-out: minimum growth inhibitory concentration (MIC)
Description: as §1

Ps. maltophilia, IID1275 = settings: Stenotrophomonas maltophilia, IID1275, Ps. maltophilia, read-out: minimum growth inhibitory concentration (MIC)
Description: as §1

S. aureus, 209P = settings: Staphylococcus aureus, read-out: minimum growth inhibitory concentration (MIC)
Description: as §1

S. epidermidis, 56500 = settings: for MIC: Staphylococcus epidermidis, 56500, S. epidermidis, read-out: minimum growth inhibitory concentration (MIC)
Description: as §1

Ser. marcescens, 13001 = settings: for MIC: Serratia marcescens, 13001, Ser. marcescens, read-out: minimum growth inhibitory concentration (MIC)
Description: as §1

Sh. flexneri, 2a5503 = settings: Shigella flexneri, read-out: minimum growth inhibitory concentration (MIC)
Description: as §1

[1] = test system: Str. faecalis, ATCC 19433; settings: for MIC: Enterococcus faecalis, ATCC19433, Str. faecalis, read-out: minimum growth inhibitory concentration (MIC)
Description: as §1

Str. pyogenes, G-36 = settings: for MIC: Streptococcus pyogenes, G36, Str. pyogenes, read-out: minimum growth inhibitory concentration (MIC)
Description: as §1

Compound	MIC (E. coli, NIHJ)	MIC (Pr. mirabilis, IF03849)	MIC (Pr. vulgaris, 3167)	MIC (Ps. aeruginosa, 2063)	MIC (Ps. aeruginosa, 2128)	MIC (Ps. cepacia, IID1340)	MIC (Ps. maltophilia, IID1275)	MIC (S. aureus, 209P)	MIC (S. epidermidis, 56500)	MIC (Ser. marcescens, 13001)	MIC (Sh. flexneri, 2a5503)	MIC [1]	MIC (Str. pyogenes, G-36)	other results
CCC(N)C1CCN(c2c(F)cc3c(=O)c(C(=O)O)cn(CC)c3c2F)C1 (stereo not drawn) [Example 10, 7-[3-(1-Aminopropyl)-1-pyrrolindinyl]-1-ethyl-6,8-difluoro-1,4-dihydro-4-oxoquinoline-3-carboxylic acid]	≤ 0.05 µg/mL	0.2 µg/mL (≈ 0.527 µM)	0.1 µg/mL (≈ 0.264 µM)	1.56 µg/mL (≈ 4.11 µM)	6.39 µg/mL (≈ 16.8 µM)	1.56 µg/mL (≈ 4.11 µM)	0.39 µg/mL (≈ 1.03 µM)	≤ 0.05 µg/mL	0.1 µg/mL (≈ 0.264 µM)	0.2 µg/mL (≈ 0.527 µM)	≤ 0.05 µg/mL	≤ 0.05 µg/mL	≤ 0.05 µg/mL	–
CCn1cc(C(=O)O)c(=O)c2cc(F)c(N3CCC(C(C)N)C3)c(F)c21 (single isomer, unassigned) [Example 3, 7-[3-(1-Aminoethyl)-1-pyrrolidinyl]-1-ethyl-6,8-difluoro-1,4-dihydro-4-oxoquinoline-3-carboxylic acid]	≤ 0.05 µg/mL	0.2 µg/mL (≈ 0.547 µM)	–	0.39 µg/mL (≈ 1.07 µM)	0.2 µg/mL (≈ 0.547 µM)	1.56 µg/mL (≈ 4.27 µM)	0.78 µg/mL (≈ 2.13 µM)	≤ 0.05 µg/mL	–	0.2 µg/mL (≈ 0.547 µM)	≤ 0.05 µg/mL	–	–	minimum growth inhibitory concentration (MIC) (Pr. vulgaris, 3167; Pr. vulgaris): 0.20 µg/mL; minimum growth inhibitory concentration (MIC) (S. epidermidis, 56500; S. epidermidis): 0.20 µg/mL; minimum growth inhibitory concentration (MIC) ([1]; Str. faecalis): 0.39 µg/mL; minimum growth inhibitory concentration (MIC) (Str. pyogenes, G-36; Str. pyogenes): 0.39 µg/mL
CNC(C)(C)C1CCN(c2c(F)cc3c(=O)c(C(=O)O)cn(C4CC4)c3c2F)C1 (stereo not drawn) [Example 14, 1-Cyclopropyl-6,8-difluoro-1,4-dihydro-7-[3-(1-methyl-1-methylamino)ethyl-1-pyrrolidinyl]-4-oxoquinoline-3-carboxylic acid]	≤ 0.05 µg/mL	0.2 µg/mL (≈ 0.493 µM)	0.2 µg/mL (≈ 0.493 µM)	3.13 µg/mL (≈ 7.72 µM)	0.39 µg/mL (≈ 0.962 µM)	1.56 µg/mL (≈ 3.85 µM)	0.39 µg/mL (≈ 0.962 µM)	0.2 µg/mL (≈ 0.493 µM)	0.2 µg/mL (≈ 0.493 µM)	0.39 µg/mL (≈ 0.962 µM)	≤ 0.05 µg/mL	0.1 µg/mL (≈ 0.247 µM)	0.1 µg/mL (≈ 0.247 µM)	–
CCC(N)C1CCN(c2c(F)cc3c(=O)c(C(=O)O)cn(CC)c3c2F)C1 (single isomer, unassigned) [Example 20, 1-ethyl-6,8-difluoro-7-[3-(1-aminopropyl)-1-pyrrolidinyl]-1,4-dihydro-4-oxoquinoline-3-carboxylic acid]	≤ 0.05 µg/mL	0.1 µg/mL (≈ 0.264 µM)	≤ 0.05 µg/mL	0.39 µg/mL (≈ 1.03 µM)	0.2 µg/mL (≈ 0.527 µM)	0.39 µg/mL (≈ 1.03 µM)	0.2 µg/mL (≈ 0.527 µM)	≤ 0.05 µg/mL	≤ 0.05 µg/mL	0.1 µg/mL (≈ 0.264 µM)	≤ 0.05 µg/mL	≤ 0.05 µg/mL	≤ 0.05 µg/mL	–
CCC(N)C1CCN(c2c(F)cc3c(=O)c(C(=O)O)cn(C4CC4)c3c2F)C1 (single isomer, unassigned) [Example 21, 1-Cyclopropyl-6,8-difluoro-7-[3-(1aminopropyl)-1-pyrrolidinyl]-1,4-dihydro-4-oxoquinoline-3-carboxylic acid]	≤ 0.05 µg/mL	0.1 µg/mL (≈ 0.255 µM)	≤ 0.05 µg/mL	0.2 µg/mL (≈ 0.511 µM)	0.1 µg/mL (≈ 0.255 µM)	0.2 µg/mL (≈ 0.511 µM)	≤ 0.05 µg/mL	≤ 0.05 µg/mL	≤ 0.05 µg/mL	≤ 0.05 µg/mL	≤ 0.05 µg/mL	≤ 0.05 µg/mL	≤ 0.05 µg/mL	–
CC(N)C1CCN(c2nc3c(cc2F)c(=O)c(C(=O)O)cn3C2CC2)C1 (stereo not drawn) [Example 5, 7-[3-(1-Aminoethyl)-1-pyrrolidinyl]-1-cyclopropyl-6-fluoro-1,4-dihydro-4-oxo-1,8-naphthyridine-3-carboxylic acid]	≤ 0.05 µg/mL	–	0.05 µg/mL (≈ 0.139 µM)	–	–	–	0.39 µg/mL (≈ 1.08 µM)	≤ 0.05 µg/mL	≤ 0.05 µg/mL	–	≤ 0.05 µg/mL	0.2 µg/mL (≈ 0.555 µM)	0.39 µg/mL (≈ 1.08 µM)	minimum growth inhibitory concentration (MIC) (Pr. mirabilis, IF03849; Pr. mirabilis): 0.39 µg/mL; minimum growth inhibitory concentration (MIC) (Ps. aeruginosa, 2063; Ps. aeruginosa): 0.78 µg/mL; minimum growth inhibitory concentration (MIC) (Ps. aeruginosa, 2128; Ps. aeruginosa): 6.20 µg/mL; minimum growth inhibitory concentration (MIC) (Ps. cepacia, IID1340; Ps. cepacia): 1.56 µg/mL; minimum growth inhibitory concentration (MIC) (Ser. marcescens, 13001; Ser. marcescens): 0.20 µg/mL
